Tests used:
human CDK2:CycA = human CDK2:CycA (Homo sapiens, UniProt P24941); assay: Mammalian protein kinase assay / counter screen, CDK2:CYCA; format: biochemical; settings: BioFocus SFK48 library, counter screen
Description: Leishmania CRK3:CYC6 protein kinase assays were performed in 96-well microtiter plates in a final volume of 25 µl. Each assay point contained 7.5 ng of co-expressed histidine-tagged CRK3:CYC6 protein kinase complex (hereafter referred to as CRK3:CYC6) diluted in enzyme dilution buffer (EDB) (20 mM Tris-HCl pH 7.2, 0.5 mg ml^−1 BSA, 2.5% glycerol and 0.006% Brij-35). Assays were performed using the assay development buffer (ADB) (20 mM MOPS, pH 7.0, 25 mM β-glycerophosphate, 5 mM EGTA, 1 mM NaVO3, 1 mM DTT and 15 mM MgCl2) supplemented with 100 µM ATP, 0.5 µCi of γ-^32P ATP per reaction and histone H1 as a substrate used at 0.4 mg ml^−1. Two and three-fold titrations were set up to determine the concentration of enzyme to be used per assay point (7.5 ng) and to determine the concentrations of selected inhibitors required for 50% inhibition of Leishmania CRK3:CYC6 protein kinase activity (IC50 values), respectively. For IC50 determinations, assay mixes contained DMSO to a final concentration of 2%. Mammalian protein kinase assays were carried out according to the assay protocols developed at Cyclacel. Assays were carried out for 30 minutes at 30°C before stopping the reaction by the addition of an equal volume (25 µl) of 75 mM orthophosphoric acid. Samples were spotted onto a p81 cellulose filterplate (Nunc) and a vacuum applied. Wells were washed 3×200 µl with 75 mM phosphoric acid and the bottom of the plate sealed. 50 µl of Microscint 40 (Perkin Elmer) was added per well before incorporation of radioactivity was determined on a Topcount microplate scintillation counter.

WT promastigote L. major = assay: L. major promastigote growth inhibition assay (resazurin); format: cell-based; settings: BioFocus SFK48 HTS hits; 5 days at 25°C; read-out: IC50 against WT promastigote L. major
Description: L. major wild type promastigotes (Friedlin strain: WHO designation MHOM/JL/81/Friedlin) were grown at 25°C in HOMEM medium (Invitrogen cat no. 041-94699111) supplemented with 10% (v/v) heat inactivated foetal calf serum (HIFCS) and 1% (v/v) penicillin/streptomycin antibiotics.
CRK3 inhibitors were diluted into HOMEM medium supplemented with 10% HIFCS at twice the final screening concentration. Five-fold or ten-fold serial dilutions were carried out into HOMEM medium supplemented with 10% HIFCS. 100 µl of each drug concentration were added to a 96 well plate in duplicate. 100 µl of five-fold or ten-fold serial dilutions of 1 mM Pentamidine (Sigma) and an equivalent volume of 100% DMSO were included as positive and negative controls, in duplicate, respectively. L. major promastigote cells were diluted to a cell density of 2×10^6 cells ml^−1 in HOMEM media supplemented with 10% HIFCS and 100 µl added to all wells in 96 well plates. Plates were sealed with parafilm and incubated for 5 days at 25°C. After 5 days, 20 µl of filter sterile resazurin solution (12.5 mg resazurin salt in 100 ml PBS) (Sigma) was added to each of the wells and the plate incubated for a further 24 hours at 25°C. Fluorescence was measured using an Envision plate reader (Perkin Elmer) at 540 nm excitation wavelength and 590 nm emission wavelength.

Leishmania CRK3:CYC6 = Leishmania CRK3:CYC6 (Leishmania major, UniProt O96526); assay: IMAP fluorescence polarisation high throughput screen of CRK3:CYC6; format: biochemical, L. major; parameters: made in house; host or cells: E. coli BL21 (DE3) pLys-S; settings: BioFocus SFK48 library, primary concentration 20 µM
Sequence of Leishmania CRK3:CYC6 (O96526 entry or part of it): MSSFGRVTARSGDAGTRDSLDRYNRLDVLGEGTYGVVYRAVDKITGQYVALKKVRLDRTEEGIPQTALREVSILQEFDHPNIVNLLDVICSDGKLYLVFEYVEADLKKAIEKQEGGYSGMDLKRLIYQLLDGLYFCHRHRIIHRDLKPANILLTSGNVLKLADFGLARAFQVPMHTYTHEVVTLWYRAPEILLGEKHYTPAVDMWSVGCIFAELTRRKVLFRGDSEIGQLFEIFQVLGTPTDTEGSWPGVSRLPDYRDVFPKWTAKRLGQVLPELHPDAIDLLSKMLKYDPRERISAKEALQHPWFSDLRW
Description: (§1) Protein kinase assays were performed in 384-well non-treated black plates (Nunc) in a final volume of 20 µl. Each assay point contained 1.25 ng of co-expressed Leishmania CRK3:CYC6 protein kinase complex. […] The enzyme complex, peptide and ATP were made up in the IMAP complete reaction buffer (CRB) (10 mM Tris-HCl, pH 7.2, 10 mM MgCl2, 0.05% NaN3, 0.01% Tween-20 and 1 mM DTT). Assays were carried out for 1 hour 20 minutes at room temperature and the reaction stopped by the addition of 50 µl of the IMAP progressive binding reagent (Proprietary buffer from Molecular Devices plus tri-valent metal-containing nanoparticles). The assay was left to proceed for a further 1 hour 20 minutes at room temperature and the fluorescence polarization determined by a Perkin Elmer Fusion microplate reader, with excitation at 485 nm and emission at 535 nm.

CRK3:CYC6 = settings: peptide as substrate of CRK3:CYC6
Sequence of CRK3:CYC6 (O96526 entry or part of it): as above
Description: as §1
The IMAP fluorescent polarisation assay was selected for the high throughput screen. First a substrate finder assay was carried out with 61 potential serine/threonine protein kinase substrates. […] In order to establish the quantity of CRK3:CYC6 to use in the IMAP HTS assays, a two-fold enzyme titration was carried out (Figure S2 in Supporting Information Text S1).

| Compound | activity towards CDK2:CycA in the primary screen (human CDK2:CycA) | IC50 (WT promastigote L. major) [µM] | activity towards CRK3:CYC6 in the primary screen (Leishmania CRK3:CYC6) | ΔmP signal (CRK3:CYC6) [mP] |
| --- | --- | --- | --- | --- |
| NC(c1csc(NC(=O)Nc2cccc(Cl)c2)n1)c1ccccc1Cl (centres unmarked) [Compound 43] | active | 12.5 | active |  |
| CN(C)Cc1csc(NC(=O)Nc2ccccc2Oc2ccccc2)n1 [Compound 44] | active | 14.4 | active |  |
| COc1ccc(CC(N)c2csc(NC(=O)Nc3cc(OC)ccc3OC)n2)cc1 (centres unmarked) [Compound 45] | inactive | 6.8 | inactive |  |
| COc1ccc(CNC(=O)Nc2nc(C(N)CCc3ccccc3)cs2)cc1 (centres unmarked) [Compound 46] | inactive | 7.8 | inactive |  |
| FLAKSFGSPNRAYKK [CDK7 derived] |  |  |  | 180 |
| GGGPATPKKAKKL [Histone H1 derived] |  |  |  | 295 |
| GGGRSPGRRRRK [Generic Sequence] |  |  |  | 310 |
| PKTPKKAKKL [Histone H1 derived (aa 9–18)] |  |  |  | 280 |
| RRRFRPASPLRGPPK [DYRKtide] |  |  |  | 190 |

From paper PMC3071374, “High Throughput Screens Yield Small Molecule Inhibitors of Leishmania CRK3:CYC6 Cyclin-Dependent Kinase” (PLoS Neglected Tropical Diseases, 2011)
